{"source": "paper PMC7557804", "about": "“The Anti-Microbial Peptide (Lin-SB056-1)2-K Reduces Pro-Inflammatory Cytokine Release through Interaction with Pseudomonas aeruginosa Lipopolysaccharide” (Antibiotics, 2020)", "tested_on": "THP-1 macrophages", "test": "Cytotoxicity (LDH release) towards THP-1 macrophages", "format": "cell-based, Human", "settings": "4 h", "description": "Human non-small-cell lung adenocarcinoma A549 cells (ATCC CCL-185; LGC Standards, Milan, Italy) and human monocytic THP-1 cells (ATCC TIB-202; LGC Standards) were cultured in tissue culture flasks in Dulbecco’s modified essential medium (DMEM) (Euroclone, Milan, Italy) and RPMI 1640 medium (Euroclone), respectively. Both media were supplemented with 2 mM L-glutamine (Euroclone) and 10% heat-inactivated fetal bovine serum (FBS; Euroclone). Confluent monolayers were detached from the culture flask with 0.25% trypsin/1 mM EDTA solution (Euroclone), suspended in complete culture medium and seeded into flat-bottom 96-well plates at a final density of 1 × 10^4 cells/well (A549) and 2 × 10^4 cells/well (THP-1). A549 cells were cultured for 24 h at 37 °C, 5% CO2 in order to allow adhesion and formation of semi-confluent monolayers. THP-1 cells were cultured for 3 days (37 °C, 5% CO2) in the presence of 100 nM TPA (Sigma-Aldrich, St. Louis, MO, USA) to induce their differentiation into macrophage-like cells.\nThe cytotoxicity of lin-SB056-1 and (lin-SB056-1)2-K towards A549 and THP-1 cells was evaluated to exclude a possible correlation between reduction in cytokine levels and decrease in cell numbers. To this end, culture supernatants of cells stimulated with LPS in the presence of the peptides were employed to quantify the amount of cytoplasmic LDH released by dead cells. Cells incubated in culture medium alone or in the presence of LPS served as an indication of spontaneous cell death (cell viability controls), while cells treated with a commercial lysis buffer (Pierce LDH cytotoxicity assay kit, Thermo Fisher Scientific) were used as cell death control (100% cell lysis). The enzymatic activity of LDH in cell supernatants was measured using the Pierce LDH cytotoxicity assay kit (Thermo Fisher Scientific) following manufacturer’s instructions. The cytotoxic effect was determined as follows: cytotoxicity (%) = [(LDH activity of A/LDH activity of B) × 100], where A represents peptide-treated or untreated cells (both in the presence and absence of LPS), and B corresponds to the cell lysis control."}
{"substance": "[KWKIRVRLSA]2-K [(lin-SB056-1)2-K, dendrimeric derivative of lin-SB056-1]", "values": [{"measurement": "cell death (LDH release), with LPS", "setting": "LPS-stimulated THP-1 macrophages, up to 19.25 μM (highest tested), 37 °C, 5% CO2, relative to cell lysis control, at least three independent experiments", "value": "less than 5%"}, {"measurement": "toxicity", "setting": "LPS-stimulated THP-1 macrophages, up to 19.25 μM, LDH release", "value": "no detectable toxicity"}, {"measurement": "cell death (LDH release), co-cultured with peptide and LPS", "setting": "THP-1 macrophages, 19.25 μM peptide with LPS, 37 °C, 5% CO2, mean of at least three independent experiments", "value": 5, "unit": "%"}, {"measurement": "cell death (LDH release), in the absence of LPS", "setting": "THP-1 macrophages, 19.25 μM peptide, no LPS, 37 °C, 5% CO2, mean of at least three independent experiments", "value": 14, "unit": "%"}]}
